# Test results published in PubChem BioAssay AID330 (DTP/NCI, 2004).
# “And” between values parts separate entries of the source, which are not always exact repeats. Identical values can stand only once. Inconclusive results and toxic doses are left out. Square brackets hold non-standard residues; d marks the D form. Peptide text beside a SMILES is read from it. pGlu = O=C1CC[CH](C(=O)O)N1
# Test system: P388 leukemia ip, CD2F1 mice, survival T/C
# Assay: NCI In Vivo Anticancer Drug Screen. Data for tumor model P388 Leukemia (intraperitoneal) in CD2F1 (CDF1) mice
# Conditions: endpoint: median survival time, higher = longer survival
# In short: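 Mice carrying the transplanted tumor received test compound or vehicle. Survival was recorded in each group, and the value is the treated-group measurement divided by that of the vehicle-treated control group.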
# [1] = dose: 50.0 mg/kg/injection, schedule: Q01DX005 (ip), vehicle: saline with Tween-80
# [2] = dose: 100.0 mg/kg/injection, schedule: Q01DX005 (ip), vehicle: saline with Tween-80
# [3] = dose: 200.0 mg/kg/injection, schedule: Q01DX005 (ip), vehicle: saline with Tween-80
# [4] = dose: 50.0 mg/kg/injection, schedule: Q01DX009 (ip), vehicle: saline with Tween-80
# [5] = dose: 100.0 mg/kg/injection, schedule: Q01DX009 (ip), vehicle: saline with Tween-80
# [6] = dose: 100.0 mg/kg/injection, schedule: Q04DX003 (ip), vehicle: saline with Tween-80
# [7] = dose: 200.0 mg/kg/injection, schedule: Q01DX009 (ip), vehicle: saline with Tween-80
# [8] = dose: 50.0 mg/kg/injection, schedule: Q01DX009 (ip), vehicle: Klucel (hydroxypropylcellulose) (HPC)
# [9] = dose: 100.0 mg/kg/injection, schedule: Q01DX009 (ip), vehicle: Klucel (hydroxypropylcellulose) (HPC)
# [10] = dose: 200.0 mg/kg/injection, schedule: Q01DX009 (ip), vehicle: Klucel (hydroxypropylcellulose) (HPC)
# [11] = dose: 12.5 mg/kg/injection, schedule: Q01DX005 (ip), vehicle: Klucel (hydroxypropylcellulose) (HPC)
# [12] = dose: 25.0 mg/kg/injection, schedule: Q01DX005 (ip), vehicle: Klucel (hydroxypropylcellulose) (HPC)
# [13] = dose: 50.0 mg/kg/injection, schedule: Q01DX005 (ip), vehicle: Klucel (hydroxypropylcellulose) (HPC)
# [14] = dose: 25.0 mg/kg/injection, schedule: Q04DX002 (ip), vehicle: saline with Tween-80
smiles,measurement,setting,value
COc1cc(CBr)ccc1OCc1ccccc1,T/C,"dose: 12.5 mg/kg/injection, schedule: Q01DX009 (ip), vehicle: distilled water + Tween-80",111 % of control
same,T/C,"dose: 25.0 mg/kg/injection, schedule: Q01DX009 (ip), vehicle: distilled water + Tween-80",101 % of control
same,T/C,"dose: 50.0 mg/kg/injection, schedule: Q01DX009 (ip), vehicle: distilled water + Tween-80",108 % of control
same,T/C,"dose: 100.0 mg/kg/injection, schedule: Q01DX009 (ip), vehicle: distilled water + Tween-80",108 % of control
COc1ncnc2c1ncn2C1CCCCO1 (stereo not drawn),T/C,[1],97 % of control
same,T/C,[2],101 % of control
same,T/C,[3],99 % of control
CCN(CC)S(=O)(=O)c1ccc(OC)c(N)c1,T/C,[4],90 % of control
same,T/C,[5],95 % of control
same,T/C,[6],90 % of control
same,T/C,[7],90 % of control
same,T/C,"dose: 200.0 mg/kg/injection, schedule: Q04DX003 (ip), vehicle: saline with Tween-80",90 % of control
C1=CC(=C(c2ccccc2)c2ccccc2)C=C1,T/C,[8],98 % of control
same,T/C,[4],107 % of control
same,T/C,[9],100 % of control
same,T/C,[5],104 % of control
same,T/C,[10],101 % of control
same,T/C,[7],102 % of control
same,T/C,"dose: 400.0 mg/kg/injection, schedule: Q01DX009 (ip), vehicle: saline with Tween-80",102 % of control
O=C1CCC(c2n[nH]c(=S)o2)N1Cc1ccccc1 (stereo not drawn),T/C,"dose: 60.0 mg/kg/injection, schedule: Q01DX005 (ip), vehicle: saline with Tween-80",98 % of control
same,T/C,"dose: 120.0 mg/kg/injection, schedule: Q01DX005 (ip), vehicle: saline with Tween-80",100 % of control
same,T/C,"dose: 240.0 mg/kg/injection, schedule: Q01DX005 (ip), vehicle: saline with Tween-80",103 % of control
c1cc(CSC2=NCCN2)c2cccc(CSC3=NCCN3)c2c1,T/C,[11],103 % of control
same,T/C,[12],107 % of control
same,T/C,[13],103 % of control and 112 % of control
CC(C)=CC[P+](CCC[P+](CC=C(C)C)(c1ccccc1)c1ccccc1)(c1ccccc1)c1ccccc1,T/C,"dose: 3.12 mg/kg/injection, schedule: Q01DX005 (ip), vehicle: saline with Tween-80",106 % of control
same,T/C,"dose: 6.25 mg/kg/injection, schedule: Q01DX005 (ip), vehicle: saline with Tween-80",104 % of control
same,T/C,"dose: 12.5 mg/kg/injection, schedule: Q01DX005 (ip), vehicle: saline with Tween-80",98 % of control
CC(C)(C)C(=O)OCCOCCOC(=O)c1ccccc1,T/C,[8],95 % of control
same,T/C,[9],104 % of control
same,T/C,[10],102 % of control
CC(C)c1cc2c(cc1O)C[C@@]1(O)CCCC(C)(C)C1CC2 (stereo partly drawn),T/C,"dose: 7.0 mg/kg/injection, schedule: Q01DX005 (ip), vehicle: other",100 % of control
same,T/C,"dose: 14.0 mg/kg/injection, schedule: Q01DX005 (ip), vehicle: other",100 % of control
same,T/C,"dose: 28.0 mg/kg/injection, schedule: Q01DX005 (ip), vehicle: other",104 % of control
same,T/C,"dose: 56.0 mg/kg/injection, schedule: Q01DX005 (ip), vehicle: other",99 % of control
CCCCCCCCCCCCCCCCS(=O)(=O)N/N=C(\c1ccc(C(C)C)cc1)N1CCOCC1,T/C,[8],90 % of control
same,T/C,[9],89 % of control
same,T/C,[10],90 % of control
CCOC(=O)CCC(NC(=O)C1CCC(=O)N1)C(=O)OCC (stereo not drawn) ([pGlu]-Glu(OEt)-OEt; configuration not given here),T/C,[1],96 % of control
same,T/C,[2],91 % of control
same,T/C,[3],98 % of control
CN1C2CCC1CC(OC(=O)/C=C/C(=O)OC1CC3CCC(C1)N3C)C2 (stereo not drawn),T/C,"dose: 60.0 mg/kg/injection, schedule: Q01DX005 (ip), vehicle: suspension in saline",91 % of control
same,T/C,"dose: 120.0 mg/kg/injection, schedule: Q01DX005 (ip), vehicle: suspension in saline",91 % of control
COc1cc(C2(C3C(CO)OC(=O)C3Cc3ccc4c(c3)OCO4)SCCCS2)cc(OC)c1OC (stereo not drawn),T/C,[14],100 % of control
same,T/C,"dose: 50.0 mg/kg/injection, schedule: Q04DX002 (ip), vehicle: saline with Tween-80",87 % of control
COC(=O)C1=[N+]([O-])OC(C(=O)OC)C1c1ccc(OC)cc1 (stereo not drawn),T/C,[1],97 % of control
same,T/C,[2],97 % of control
same,T/C,[3],98 % of control
C=C1C(O)C2(O)OCC34C(CC5C(C)=CC(=O)C(O)C5(C)C23)OC(=O)C(O)C14O (stereo not drawn),T/C,"dose: 6.25 mg/kg/injection, schedule: Q01DX009 (ip), vehicle: saline",93 % of control
Brc1cnc2nc(-c3cccc4ccccc34)[nH]c2c1,T/C,"dose: 100.0 mg/kg/injection, schedule: Q01DX001 (ip), vehicle: saline with Tween-80",96 % of control
same,T/C,"dose: 200.0 mg/kg/injection, schedule: Q01DX001 (ip), vehicle: saline with Tween-80",94 % of control
same,T/C,"dose: 400.0 mg/kg/injection, schedule: Q01DX001 (ip), vehicle: saline with Tween-80",91 % of control
COc1ccc(Br)c(C(=O)O)c1OS(=O)(=O)c1ccc(C)cc1,T/C,"dose: 25.0 mg/kg/injection, schedule: Q01DX009 (ip), vehicle: other",106 % of control
same,T/C,"dose: 50.0 mg/kg/injection, schedule: Q01DX009 (ip), vehicle: other",105 % of control
same,T/C,"dose: 100.0 mg/kg/injection, schedule: Q01DX009 (ip), vehicle: other",100 % of control
same,T/C,"dose: 200.0 mg/kg/injection, schedule: Q01DX009 (ip), vehicle: other",105 % of control
same,T/C,"dose: 400.0 mg/kg/injection, schedule: Q01DX009 (ip), vehicle: other",108 % of control
CC(=O)OC1OC(C[Se][As](C)C)C(OC(C)=O)C(OC(C)=O)C1OC(C)=O (stereo not drawn),T/C,[8],107 % of control
same,T/C,[9],120 % of control
same,T/C,[10],114 % of control
O=C1OCC23CCC4C1C42CC1(CC3)OCCO1 (stereo not drawn),T/C,"dose: 50.0 mg/kg/injection, schedule: Q01DX005 (ip), vehicle: saline",99 % of control
same,T/C,"dose: 100.0 mg/kg/injection, schedule: Q01DX005 (ip), vehicle: saline",101 % of control
same,T/C,"dose: 200.0 mg/kg/injection, schedule: Q01DX005 (ip), vehicle: saline",98 % of control
O=C1CCCC2OC12 (stereo not drawn),T/C,"dose: 100.0 mg/kg/injection, schedule: Q04DX002 (ip), vehicle: saline",110 % of control
same,T/C,"dose: 200.0 mg/kg/injection, schedule: Q04DX002 (ip), vehicle: saline",112 % of control
CC1(C)c2c3ccccc3cc3cccc(c23)[S+]1c1ccccc1 (stereo not drawn),T/C,"dose: 5.0 mg/kg/injection, schedule: Q04DX003 (ip), vehicle: saline",100 % of control
same,T/C,"dose: 10.0 mg/kg/injection, schedule: Q04DX003 (ip), vehicle: saline",104 % of control
same,T/C,"dose: 20.0 mg/kg/injection, schedule: Q04DX003 (ip), vehicle: saline",108 % of control
COc1ccc(C(=O)O[C@@H]2CCN3CC[C@H](C)[C@H]23)cc1,T/C,[11],102 % of control
same,T/C,[12],102 % of control
same,T/C,[13],104 % of control
Oc1cccc(/C=N/N=C/c2cccc(O)c2O)c1O,T/C,[8],96 % of control
same,T/C,[9],93 % of control
CC12CC3(C)CC(C(Cl)C(=O)O)(C1)CC(C(Cl)C(=O)O)(C2)C3 (stereo not drawn),T/C,[4],103 % of control
same,T/C,[5],100 % of control
same,T/C,[7],107 % of control
CC(=O)CC(=O)c1ccccc1.CC(=O)CC(=O)c1ccccc1.[CH3][Sn][CH3],T/C,"dose: 100.0 mg/kg/injection, schedule: Q01DX001 (ip), vehicle: Klucel (hydroxypropylcellulose) (HPC)",95 % of control
same,T/C,"dose: 200.0 mg/kg/injection, schedule: Q01DX001 (ip), vehicle: Klucel (hydroxypropylcellulose) (HPC)",99 % of control
same,T/C,"dose: 400.0 mg/kg/injection, schedule: Q01DX001 (ip), vehicle: Klucel (hydroxypropylcellulose) (HPC)",96 % of control
CC([NH-])CC(C)[NH-].[I][Pt+2][I] (stereo not drawn),T/C,"dose: 12.5 mg/kg/injection, schedule: Q04DX002 (ip), vehicle: saline with Tween-80",169 % of control and 150 % of control
same,T/C,[14],163 % of control and 157 % of control
CCN(CC)CCCCCNc1cc(Cl)c(Cl)cc1[N+](=O)[O-],T/C,"dose: 12.5 mg/kg/injection, schedule: Q01DX009 (ip), vehicle: saline",99 % of control
same,T/C,"dose: 25.0 mg/kg/injection, schedule: Q01DX009 (ip), vehicle: saline",95 % of control
same,T/C,"dose: 50.0 mg/kg/injection, schedule: Q01DX009 (ip), vehicle: saline",107 % of control
O=C(Nc1ccc2c(c1)OCO2)O/N=C1\C(=O)Nc2ccccc21,T/C,"dose: 25.0 mg/kg/injection, schedule: Q04DX003 (ip), vehicle: saline with Tween-80",100 % of control
same,T/C,"dose: 50.0 mg/kg/injection, schedule: Q04DX003 (ip), vehicle: saline with Tween-80",90 % of control
same,T/C,[6],90 % of control
Cc1cc(O)c(NCCN(C)C)c2c(=O)c3ccccc3sc12,T/C,[4],100 % of control
same,T/C,[5],101 % of control
same,T/C,[7],100 % of control
O=C1Nc2ccccc2/C1=C/c1ccco1,T/C,[8],99 % of control
same,T/C,[9],113 % of control
same,T/C,[10],89 % of control
